Values after ≈ are worked out from the molar mass of the structure shown. Where two headings read alike, the source gives them in different places. Residues, ends and D or L forms follow the SMILES beside them.
Key:
[1] = pKa, pI and charge distribution of buffers; conditions: for % salt: fraction of dipeptide carrying a net charge in aqueous solution at pH equal to pI
Text: At the pI, three species coexist.
In an electric field these negative species move in the opposite direction of their positive associated counterions.
Choice of the dipeptide buffer will be on a case-by-case basis depending on the drug compound and the desired level of pH control and conductivity of the formulation.

[2] = Solubility of dipeptides at their pI; format: physicochemical
Text: (§1) Table 1 lists conductivities and solubilities of selected dipeptides useful in the present invention, at their pI.

[3] = pH stability of formulations with TMAB or SMS during electrotransport (Example 4); format: in vivo, hairless guinea pigs; conditions: for pH control with TMAB or SMS: all experimental conditions tested (Table 7)
Text: The effect of the zwitterionic buffer Gly-His and His-Glu on pH stability of formulations containing small molecular weight drug-like compounds during electrotransport to hairless guinea pigs was studied. Trimethylammonium bromide (TMAB) was used as the cationic model drug and sodium methanesulfate (SMS) was used as the model anionic drug.
The electrodes were connected to a DC power source which supplied a constant level of electric current of 0.100 mA/cm^2. The anodic electrode assembly comprised a skin-contacting gel containing the aqueous solution of His-Glu 66 mM or Gly-His 45 mM and TMAB at 50 mM and 3% HEC. This formulation was separated from the silver anode by a Sybron ion exchange membrane. A gel containing 0.15 M sodium chloride (which acted as a chloride source) was placed between the silver anode and the ion exchange membrane. The cathodic electrode assembly comprised a skin-contacting gel containing the aqueous solution of His-Glu 66 mM or Gly-His 45 mM and SMS 50 mM and 3% HEC. The cathodic gel reservoir was separated from the silver chloride cathode by a Nafion ion exchange membrane. A gel containing 0.1 5M sodium chloride was placed between the cathode and the ion exchange membrane. The ionic strength of the skin-contacting gels was 60 mM.
(§2) Experiments were performed in vivo in hairless guinea pigs. Two animals were used for each condition studied. The electrotransport systems were applied to and removed from the backs of the animals. The two reservoirs were generally spaced about 5 cm apart. The application site was wiped with 70% isopropyl alcohol wipes prior to system application. Donor reservoir gel pH was measured prior to application and after removal of the systems using a HORIBA compact pH meter (Cardy).

[4] = In vivo iontophoresis, pH control of anodic and cathodic buffer gels (Example 2); set-up: species or system hairless guinea pigs; Ionic strength (approx.): unit not given here; conditions: for Anodic pH after 5 h electrotransport / Cathodic pH after 5 h electrotransport: 0.1 mA/cm^2; for pH control of electrotransport formulations: electrotransport experiments in animals; for pH control of electrotransport formulations / pH control of anodic and cathodic electrotransport formulations: at their pI; for pH control of electrotransport formulations / pH control of an anodic electrotransport formulation: for several hours; for pH control of a cathodic electrotransport formulation: for at least 5 hours; for pH control of a cathodic electrotransport formulation / pH control of an anodic electrotransport formulation: dipeptides at their pI; for pH control of anodic and cathodic electrotransport formulations: for up to 24 hours
Experimental: In vivo iontophoresis experiments were performed using custom built electrotransport systems. […] This formulation was separated from the anode electrode by a Sybron ion exchange membrane. […] The cathode-compartment comprised a skin-contacting gel containing the aqueous solution of the buffering agent at the indicated concentration and 3% HEC. This formulation was separated from the cathode electrode by a Nafion ion exchange membrane. […] The electrodes were connected to a DC power source which supplied a constant level of electric current of 0.1 mA/cm^2. Experiments were performed in vivo in hairless guinea pigs. Three animals were used for each condition studied. The electrotransport systems were applied to and removed from the flank of the animals. The two reservoirs were generally spaced about 5 cm apart. The application site was wiped with water prior to system application. pH of the gels was measured prior to application and after removal of the systems using a HORIBA compact pH […]).

[5] = Conductivity of dipeptides at their pI; format: physicochemical
Text: as §1

[6] = Donor reservoir gel pH during electrotransport of DECAD (Example 3); format: in vivo, hairless guinea pigs
Experimental: The effect of the zwitterionic buffer Gly-His at pH 7.5 (pI) on the transdermal delivery of a synthetic radiolabeled decapeptide (DECAD) in the hairless guinea pig was evaluated. […] At pH 7.5 the net charge of DECAD is about +1.6.
The electrodes were connected to a DC power source which supplied a constant level of electric current of 0.100 mA/cm2. The anodic reservoir comprised a skin-contacting gel containing the aqueous solution of the buffering agent and DECAD at the indicated concentrations and 3% hydroxyethyl cellulose (HEC) as well as 10% cholestyramine, a high molecular weight resin in chloride salt form which contributes chloride ions into the donor solution without introducing mobile cations which compete with the DECAD for delivery into the animal. The chloride ions from the cholestyramine resin are provided to react with any silver ions which are generated by electrochemical oxidation of the silver foil anode, thereby removing silver cations (ie, as potentially competing with the DECAD cations) from the donor solution. The cathodic reservoir contained a 0.15 M aqueous solution of sodium chloride in an HEC gel.
as §2, with “Three” for “Two”, “flank” for “backs”, “water” for “70% isopropyl alcohol wipes”, “application. […]” for “application.”

[7] = Gly-His 10 mM, DECAD 5 mM, wearing time 5 h
[8] = Gly-His 30 mM, DECAD 5 mM, wearing time 5 h
[9] = Gly-His 100 mM, DECAD 0.5 mM, wearing time 5 h
[10] = Gly-His 100 mM, DECAD 5 mM, wearing time 5 h
[11] = Gly-His 100 mM, DECAD 5 mM, wearing time 24 h
[12] = Gly-His 250 mM, DECAD 5 mM, wearing time 5 h

NCC(=O)N[C@@H](Cc1cnc[nH]1)C(=O)O [Gly-His] (H-Gly-His-OH)
pI [1]: 7.55 | pka A [1]: 2.42 | pI ([1]; Table 1): 7.55 | pI ([1]; Table 2): 7.55 | species presenting a net charge (salt form) at the pI ([1]; at pI): 30% | neutral species at the pI ([1]; at pI, net charge of zero): 70% | % salt [1]: 22% | net charge at pH 7.5 ([1]; pH 7.5): essentially zero | Solubility [2]: 1000 mM (≈ 212 mg/mL) | Final pH ([3]; Anode, drug TMAB 50 mM): 6.9 | Initial pH ([3]; Anode, drug TMAB 50 mM): 7.4 | Final pH ([3]; Cathode, drug SMS 50 mM): 7.9 | Initial pH ([3]; Cathode, drug SMS 50 mM): 7.5 | pH control with TMAB or SMS [3]: good pH control | pH after 24 h electrotransport ([4]; Anode): 7.2 | pH after 24 h electrotransport ([4]; Cathode, listed as Gly-His 100 mM): 7.3 | pH after 24 h electrotransport ([4]; Cathode, listed as Gly-His 250 mM): 7.0 | Ionic strength (approx.) ([4]; Table 3, anodic buffer gel, listed as Gly-His 30 mM): ~0.007 | Ionic strength (approx.) ([4]; Table 3, anodic buffer gel, listed as Gly-His 100 mM): ~0.02 | Ionic strength (approx.) ([4]; Table 3, anodic buffer gel, listed as Gly-His 250 mM): ~0.06 | Ionic strength (approx.) ([4]; Table 4, cathodic buffer gel, listed as Gly-His 100 mM): ~0.02 | Ionic strength (approx.) ([4]; Table 4, cathodic buffer gel, listed as Gly-His 250 mM): ~0.06 | Initial pH ([4]; Table 5, Anode, listed as Gly-His 100 mM): 7.3 | Initial pH ([4]; Table 5, Anode, listed as Gly-His 250 mM): 7.2 | Initial pH ([4]; Table 5, Cathode, listed as Gly-His 100 mM): 7.6 | Initial pH ([4]; Table 5, Cathode, listed as Gly-His 250 mM): 6.9 | Anodic pH after 5 h electrotransport ([4]; anodic gel, listed as Gly-His 30 mM): 7.0 | Anodic pH after 5 h electrotransport ([4]; anodic gel, listed as Gly-His 100 mM): 7.3 | Anodic pH after 5 h electrotransport ([4]; anodic gel, listed as Gly-His 250 mM): 7.3 | Initial pH ([4]; anodic gel, prior to application, listed as Gly-His 30 mM): 7.1 | Initial pH ([4]; anodic gel, prior to application, listed as Gly-His 100 mM): 7.4 | Initial pH ([4]; anodic gel, prior to application, listed as Gly-His 250 mM): 7.4 | Cathodic pH after 5 h electrotransport ([4]; cathodic gel, listed as Gly-His 100 mM): 7.3 | Cathodic pH after 5 h electrotransport ([4]; cathodic gel, listed as Gly-His 250 mM): 7.4 | Initial pH ([4]; cathodic gel, prior to application, listed as Gly-His 100 mM): 7.6 | Initial pH ([4]; cathodic gel, prior to application, listed as Gly-His 250 mM): 7.5 | pH control of electrotransport formulations [4]: capable of assuring pH control | pH control of a cathodic electrotransport formulation [4]: capable of assuring pH control | pH control of an anodic electrotransport formulation [4]: capable of assuring pH control | pH control of anodic and cathodic electrotransport formulations [4]: capable of assuring pH control | Conductivity at 10^−2 Molar [5]: 52 μS/cm | Final pH [6, 7]: 7.0 | Initial pH [6, 7]: 6.9 | Final pH [6, 8]: 7.0 | Initial pH [6, 8]: 7.1 | Final pH [6, 9]: 7.2 | Initial pH [6, 9]: 7.3 | Final pH [6, 10]: 7.3 | Initial pH [6, 10]: 7.4 | Final pH [6, 11]: 7.3 | Initial pH [6, 11]: 7.4 | Final pH [6, 12]: 7.3 | Initial pH [6, 12]: 7.4 | pH control with DECAD ([6]; all experimental conditions tested (Table 6)): capable of assuring pH control

N[C@@H](Cc1cnc[nH]1)C(=O)N[C@@H](CCC(=O)O)C(=O)O [His-Glu] (H-His-Glu-OH)
pI [1]: 5.2 | pI ([1]; Table 1): 5.20 | pI ([1]; Table 2): 5.20 | species presenting a net charge (salt form) at the pI ([1]; at pI): about 15% | % salt [1]: 15% | Solubility [2]: 400 mM (≈ 114 mg/mL) | Final pH ([3]; Anode, drug TMAB 50 mM): 5.3 | Initial pH ([3]; Anode, drug TMAB 50 mM): 5.1 | Final pH ([3]; Cathode, drug SMS 50 mM): 6.0 | Initial pH ([3]; Cathode, drug SMS 50 mM): 5.2 | pH control with TMAB or SMS [3]: good pH control | pH after 24 h electrotransport ([4]; Anode, listed as His-Glu 100 mM): 5.5 | pH after 24 h electrotransport ([4]; Anode, listed as His-Glu 250 mM): 5.4 | pH after 24 h electrotransport ([4]; Cathode, listed as His-Glu 100 mM): 5.4 | pH after 24 h electrotransport ([4]; Cathode, listed as His-Glu 250 mM): 5.2 | Ionic strength (approx.) ([4]; Table 3, anodic buffer gel, listed as His-Glu 100 mM): ~0.015 | Ionic strength (approx.) ([4]; Table 3, anodic buffer gel, listed as His-Glu 250 mM): ~0.037 | Ionic strength (approx.) ([4]; Table 4, cathodic buffer gel, listed as His-Glu 100 mM): ~0.015 | Ionic strength (approx.) ([4]; Table 4, cathodic buffer gel, listed as His-Glu 250 mM): ~0.037 | Initial pH ([4]; Table 5, Anode, listed as His-Glu 100 mM): 5.1 | Initial pH ([4]; Table 5, Anode, listed as His-Glu 250 mM): 5.2 | Initial pH ([4]; Table 5, Cathode): 5.3 | Anodic pH after 5 h electrotransport ([4]; anodic gel): 5.2 | Initial pH ([4]; anodic gel, prior to application, listed as His-Glu 100 mM): 5.1 | Initial pH ([4]; anodic gel, prior to application, listed as His-Glu 250 mM): 5.2 | Cathodic pH after 5 h electrotransport ([4]; cathodic gel): 5.0 | Initial pH ([4]; cathodic gel, prior to application): 5.3 | pH control of electrotransport formulations [4]: capable of assuring pH control | pH control of a cathodic electrotransport formulation [4]: capable of assuring pH control | pH control of an anodic electrotransport formulation [4]: capable of assuring pH control | pH control of anodic and cathodic electrotransport formulations [4]: capable of assuring pH control | Conductivity at 10^−2 Molar [5]: 40 μS/cm

Reference: patent US20070078096A1, “Buffered drug formulations for transdermal electrotransport delivery” (priority 1997, published 2007)
